Source: patent publication US20110217293A1, “Uses of morelloflavone” (priority 2008, published 2011)

Columns and labels:
Ldlr−/−Apobec1−/− mice = assay: Analysis of atherosclerotic lesions (en-face and cross-sectional); type: in vivo, mouse; settings: 8 months
Method: As a model of in vivo athereosclerosis, mice that lack the low density lipoprotein (LDL) receptor and Apobec 1 genes (Ldlr^−/−Apobec1^−/−) were used. The Ldlr^−/−Apobec1^−/− mice were generated by crossbreeding Ldlr^−/− mice (Jackson Lab, Bar Harbor, Me.) and Apobec1^−/− mice (Dr. Lawrence Chan, Baylor College of Medicine). Genotyping was performed in standard PCR-based methods, using following primer sets: For Apobec1, 5′-TGAGTGAGTGGTGGTGGTAAAG-3′ (SEQ ID NO: 1) and 5′-CGAAATTCCTCCAGCAGTAAC-3′ (SEQ ID NO: 2) where […] and […] mice would have 475 by amplicon while Apobec1^−/− have none. For Ldlr, 5′-ACCCCAAGACGTGCTCCCAGGATGA-3′ (SEQ ID NO: 3), 5′-CGCAGTGCTCCTCATCTGACTTGT-3′ (SEQ ID NO: 4), 5′-AGGATCTCGTCGTGACCCATGGCGA-3′ (SEQ ID NO: 5), and 5′-GAGCGGCGATACCGTAAAGCACGAGG-3′ (SEQ ID NO: 6) where Ldlr^+/+ mice would yield 383 bp amplicon, while Ldlr^−/− 200 bp and […] amplicons, respectively.
Twenty four (24) 8 week old Ldlr^−/−Apobec1^−/− mice were randomly assigned to either control group (normal rodent chow, Lab Diet, Richmond, Ind., N=12) or morelloflavone group (normal rodent chow supplemented with 0.003% (w/w) morelloflavone, N=12). The 0.003% (w/w) morelloflavone corresponds to approximately 4 mg/kg morelloflavone for 30 gram animals that consume 4 grams of chow. Animals were housed individually in an air-conditioned room with 12-h light/dark cycle with access to food and water. Body weight of these mice was monitored monthly. After 8 months, animals were sacrificed for analyses of atherosclerosis. Just prior to the sacrifice, blood was sampled from the heart and collected into micro-centrifuge tubes containing EDTA. The entire aortae were excised. All animal experimentation protocols were performed according to the protocol approved by the Institutional Animal Care and Use Committee (IACUC) of the University of Texas Health Science Center at Houston, in accordance with the National Institutes of Health guidelines.
The aortae and hearts were excised en bloc. The extent and degree of atherosclerosis was quantified by both en-face analyses of atherosclerosis lesions and the intimal areas of the ascending aortae at the level of aortic valve leaflet. For en-face analysis of atherosclerotic areas, the distal portion of the ascending aortae, aortic arches, and descending aortae down to the liac bifurcations were pinned flat on a white wax surface, fixed with 10% (v/v) buffered formalin solution overnight, stained by freshly prepared and filtered Oil red O solution for 1 hr, rinsed twice with 78% methanol, mounted and dried on the glass slides, and scanned in the TIFF format using the ScanScope slide scanning system (Nikon, Melville, N.Y.). The planimetry of the entire surface areas and Oil red O-positive atherosclerotic lesion areas was performed on the scanned images using Sigma Scan Pro software (SPSS Science, Chicago, Ill.).
For the cross sectional analyses of atherosclerosis, the roots of the ascending aortae were embedded in OCT compound (Tissue-Tek®, Sakura-Fineteck U.S.A., Torrance, Calif.). […] In both methods of atherosclerosis quantification, the images of aortae were digitally captured and stored in the TIFF format, using the ScanScope slide scanning system (Nikon, Melville, N.Y.). The quantification of the atherosclerotic area was performed by Image J software (NIH, Bethesda, Md.) and expressed at lesion areas (μm^2).

[1] = tested on: plasma lipid peroxidation; assay: Thiobarbituric acid reactive substances (TBARS) assay; type: in vivo, mouse; settings: treated Ldlr−/−Apobec1−/− mice, N=12
Method: EDTA-added mouse plasma was stored at −80° C. until the assay. The assay was performed using a commercially available kit according to the manufacturer's instructions. The degree of plasma lipid peroxidation was expressed in terms of equivalent malondialdehyde (MDA) concentration (Cayman Chemical Co., Ann Arbor, Mich.).

## O=C1c2c(O)cc(O)cc2O[C@H](c2ccc(O)cc2)[C@H]1c1c(O)cc(O)c2c(=O)cc(-c3ccc(O)c(O)c3)oc12 [morelloflavone, 5,7, 4′, 5″, 7″, 3″, 4″-heptahydroxy-[3,8″]-flavonylflavanone]
Ldlr−/−Apobec1−/− mice; 0.003% (w/w) diet (0.03%), male Ldlr−/−Apobec1−/− mice
  atherosclerotic surface area, en-face analysis: 24.9±6.9 % of the total aortic surface area
Ldlr−/−Apobec1−/− mice; 0.003% diet
  atherosclerotic lesion area, cross-sectional analysis at aortic valve: 5.65±1.05 ×10^3 μm^2
  reduction of cross-sectional lesion area vs control: 26%
  reduction of en-face atherosclerotic area vs control: 26%
Ldlr−/−Apobec1−/− mice; 0.003% morelloflavone-containing diet
  total area affected by atherosclerosis compared with control mice (en face): substantially lower
[1]
  Thiobarbituric acid reactive substances concentration (plasma): 6.33 ± 1.47 µM
